According to PubChem BioAssay (NCI):
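Cells were grown in 96-well plates and exposed to each compound for 48 hours at five concentrations; endpoints were interpolated linearly between bracketing concentrations, or set to the highest concentration if not reached. GI50: concentration for 50% inhibition of growth. Definition used: TGI = concentration required for complete inhibition of growth.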

Experiments:
Test in all cases: NCI anticancer screen, dose series, 48 h
786-0 renal = system: 786-0 renal
MALME-3M melanoma = system: MALME-3M melanoma
MOLT-4 leukemia = system: MOLT-4 leukemia
NCI-H522 lung = system: NCI-H522 lung
NCI/ADR-RES ovarian = system: NCI/ADR-RES ovarian
PC-3 prostate = system: PC-3 prostate
SK-MEL-28 melanoma = system: SK-MEL-28 melanoma
SNB-19 CNS = system: SNB-19 CNS
SW-620 colon = system: SW-620 colon
UACC-257 melanoma = system: UACC-257 melanoma

SMILES	TGI (786-0 renal)	TGI (MALME-3M melanoma)	TGI (MOLT-4 leukemia)	TGI (NCI-H522 lung)	TGI (NCI/ADR-RES ovarian)	TGI (PC-3 prostate)	TGI (SK-MEL-28 melanoma)	TGI (SNB-19 CNS)	TGI (SW-620 colon)	GI50 (MALME-3M melanoma)	GI50 (MOLT-4 leukemia)	GI50 (NCI/ADR-RES ovarian)	GI50 (PC-3 prostate)	GI50 (SK-MEL-28 melanoma)	GI50 (SNB-19 CNS)	GI50 (SW-620 colon)	GI50 (UACC-257 melanoma)	TGI (UACC-257 melanoma)	GI50 (NCI-H522 lung)
Cn1ccnc1CCc1ccc(F)cc1F	> 100 µM	> 100 µM	> 100 µM	> 100 µM	> 100 µM	> 100 µM	> 100 µM	> 100 µM	> 100 µM										
CCN1CCN(C(=O)[C@]23CC[C@@H](C)[C@H](C)[C@@H]2C2=CC[C@@H]4[C@@]5(C)C/C(=C/c6cccnc6)C(=O)C(C)(C)[C@@H]5CC[C@@]4(C)[C@]2(C)CC3)CC1		2.75 µM	7.38 µM		3.32 µM	3.85 µM	3.15 µM	3.74 µM	4.14 µM	1.4 µM	2.45 µM	1.59 µM	1.49 µM	1.75 µM	1.79 µM	1.9 µM	2.21 µM	5.95 µM	
CC(=O)Nc1ccc2c(C(=O)O)c(C)c(=O)[nH]c2n1	> 100 µM	> 100 µM	> 100 µM	> 100 µM	> 100 µM	> 100 µM		> 100 µM	> 100 µM									> 100 µM	
C(=N\Nc1ncc(-c2cc3cc4c(cc3o2)OCO4)s1)/c1c[nH]c2ccccc12		4.02 µM	9.49 µM			6.2 µM	12.2 µM	6.25 µM	3 µM	1.4 µM	0.385 µM		0.519 µM	3.17 µM	1.57 µM	1.2 µM	2.57 µM	7.77 µM	
CC1(CCCC2(C)CCNC2=O)OCCO1 (stereo unspecified)	> 10 µM	> 10 µM	> 10 µM		> 10 µM	> 10 µM	> 10 µM	> 10 µM	> 10 µM									> 10 µM	
COC12C=C/C(=C(/C(=O)OCc3ccncn3)C(=O)CCCCCCCCC3(OC)C=C/C(=C(/C(=O)OCc4ccncn4)C(=O)CCCCCCCC1)O3)O2		0.629 µM		0.545 µM	12.6 µM	1.09 µM	2.51 µM	17.1 µM	1.14 µM	0.228 µM		0.417 µM	0.305 µM	0.317 µM	0.509 µM	0.303 µM	0.261 µM	0.882 µM	0.207 µM
O=C1NN=C(c2ccc(Cl)cc2)CC1C1C(=O)N(c2ccccc2)N=C1c1ccccc1 (stereo unspecified)	63.2 µM	> 100 µM	> 100 µM	65.2 µM	> 100 µM	72.3 µM	> 100 µM	> 100 µM	> 100 µM										
COc1ccc2c(c1)OCC1(O)Cc3ccccc3OC21 (stereo unspecified)	> 100 µM	> 100 µM	> 100 µM	> 100 µM	> 100 µM	> 100 µM			> 100 µM									> 100 µM	
Cc1cc2c(cc1-c1cc3c(cc1C)C(C(C)C)=C(O)C(=O)/C3=C\Nc1nc(-c3ccccc3)cs1)/C(=C/Nc1nc(-c3ccccc3)cs1)C(=O)C(O)=C2C(C)C	> 100 µM	> 100 µM	> 100 µM		63.9 µM	37.3 µM	30.4 µM	37.9 µM	29 µM									47 µM	
C=Nc1ccc([N+](=O)[O-])cc1	> 100 µM	> 100 µM	> 100 µM	> 100 µM			> 100 µM	> 100 µM	> 100 µM									> 100 µM	
O=S(=O)(c1ccccc1)n1c(C(O)c2ccncc2)cc2ccccc21 (stereo unspecified)	> 100 µM		> 100 µM		> 100 µM	> 100 µM	> 100 µM	> 100 µM	> 100 µM									38.9 µM	
CC/C(Cl)=N\OC(=O)Nc1ccc(OC)cc1	3.24 µM	10.7 µM	5.59 µM	2.18 µM	15 µM	29.5 µM	15.1 µM	56.2 µM										30.2 µM	
CCOC(=O)C1=CN=C2C(=O)N(c3ccccc3)N(C)C2(C)C1=N (stereo unspecified)	> 100 µM	> 100 µM		> 100 µM	> 100 µM	> 100 µM	> 100 µM	> 100 µM	> 100 µM									> 100 µM	
CCN(CC)CCCCCCCCNc1c2ccc(Cl)cc2nc2ccc(OC)cc12			4.68 µM	3.81 µM	10.3 µM	4.06 µM	3.63 µM	4.63 µM	2.67 µM		0.951 µM	2.46 µM	1.64 µM	1.95 µM	1.81 µM	1.02 µM	1.97 µM	3.57 µM	1.8 µM
O=C1C=Cc2c(Cl)sc(Cl)c21	2.44 µM				5.32 µM	4.83 µM	3.97 µM	19.8 µM										4.78 µM	
Cc1ccccc1N=C(N)NC#N	> 100 µM	> 100 µM	> 100 µM		> 100 µM	> 100 µM	> 100 µM	> 100 µM	> 100 µM									> 100 µM	
O=[N+]([O-])C(/C(Cl)=C(/Cl)N1CCOCC1)=C1\NCCO1	> 100 µM	> 100 µM	> 100 µM		> 100 µM	> 100 µM	> 100 µM	> 100 µM	> 100 µM									> 100 µM	
c1ccc2c(c1)c1c(n2CCOCCN2CCCCC2)CCCC1	26.4 µM	26.7 µM	26.7 µM		23.4 µM	22.2 µM	58 µM		35.7 µM										
C[C@]12CC[C@H]3[C@@H](CCC4=CC(=O)C=C[C@@]43O)[C@@H]1CCC2=O	> 100 µM		> 100 µM		> 100 µM	> 100 µM	> 100 µM	> 100 µM	> 100 µM									> 100 µM	
CN(C(=O)C12C3C4(C(=O)O)C1(C(=O)N(C)C(C)(C)C)C1C2(C(=O)O)C3(C(=O)N(C)C(C)(C)C)C14C(=O)N(C)C(C)(C)C)C(C)(C)C (stereo unspecified)	> 100 µM		> 100 µM	> 100 µM	> 100 µM	> 100 µM	> 100 µM	> 100 µM	> 100 µM									> 100 µM	
CC(=O)N1N=C(c2c(O)ccc3ccccc23)CC1C(=O)c1ccco1 (stereo unspecified)	> 100 µM	> 100 µM	60.1 µM	> 100 µM	> 100 µM	> 100 µM	> 100 µM		> 100 µM									> 100 µM	
